From US9545416B2 (Universite de Montreal, priority 2011, dated 2017)
“Also recorded” adds a separate entry of the source. Where two headings read alike, the source gives them in different places.

What was measured:
Parental FaDu cells = assay: Cell number / growth assay, parental FaDu cells; format: cell-based
Protocol: (§1) (FIG. 6). Gli-1 knockdown experiments were performed in parallel.

[1] = reported according to Roche; cited from earlier work
F100R cells = assay: Cell growth assay, type 1 resistant F100R cells; format: cell-based; conditions: GDC-0449, type 1 resistant F100R cells
eIF4E = biological target: T1, eIF4E (Homo sapiens, UniProt P06730); assay: Immunoprecipitation of labelled (3H/14C) ribavirin with eIF4E in living cells; format: binding
T1 construct: endogenous in cells; host or cells: parental FaDu, F10R and F100R resistant cells
Protocol: In total, it appears that these AML specimens have developed an “oncogene addiction” to eIF4E making them more sensitive to inhibition of eIF4E than specimens with normal eIF4E levels.
It was determined whether ^14C-ribavirin could immunoprecipitate with eIF4E in the F10R and F100R resistant cell lines.
Cells were treated for 24 hours with ^14C-ribavirin followed by cross-linking and immunoprecipitation and evaluated relative to IgG controls.

F10R cells = assay: Cell number / growth assay, F10R resistant cells; format: cell-based
Protocol: as §1

[2] = tested on: relapsed/refractory M4/M5 AML
Source text: The molecular features identified in present studies were examined to determine whether they were relevant to specimens from patients that received ribavirin monotherapy in the multi-centre phase II AML trial. For responding patients, all available specimens before treatment were monitored, during clinical response, upon the onset of relapse and in non-responders when possible. A total of ten specimens were examined including those from patients that enrolled in the monotherapy trial. […] Of these, samples from 10 patients were available for evaluation of molecular response. […] Gli-1 mRNA levels were monitored using qRT-PCR.

[3] = tested on: FaDu and THP1 cells and resistant F10R, F100R, T10R, T20R cell lines; conditions: previous studies; cited from earlier work
[4] = tested on: ENT1, ADK or Gli-1 levels; assay: Deep sequencing of 10R cells during ribavirin treatment; format: cell-based
Source text: All deep sequencing in resistant cells is done in the absence of ribavirin.

ENT1 = ENT1 RNA levels in patients (RT-qPCR); format: in vivo, human; conditions: Patient 10 (BR), four cycles
Source text: Results from RT-qPCR are normalised against multiple genes to ensure no changes in the normalised occurred as described.

Gli-1 mRNA = Gli-1 mRNA levels in patient specimens (qRT-PCR); format: in vivo, human; conditions: two patients that did not respond (PD)
Source text: For responding patients, in all cases Gli-1 mRNA levels were higher at resistance than during response.
The molecular features identified in present studies were examined to determine whether they were relevant to specimens from patients that received ribavirin monotherapy in the multi-centre phase II AML trial. For responding patients, all available specimens before treatment were monitored, during clinical response, upon the onset of relapse and in non-responders when possible. A total of ten specimens were examined including those from patients that enrolled in the monotherapy trial. Results from the trial, when closed, were 1 CR, 2 PR, 3 BR, 6 SD, 3 PD with 15 evaluable patients (Clinicaltrials.gov). Of these, samples from 10 patients were available for evaluation of molecular response. […] Gli-1 mRNA levels were monitored using qRT-PCR. […] (See above table).

MDR1 = MDR1 levels in patients; format: in vivo, human; conditions: Patient 10 (BR), four cycles
[5] = tested on: FaDu and THP1 cells and resistant F10R, F100R, T10R, T20R cell lines; assay: Uptake of 3H-ribavirin in parental and resistant cell lines; format: cell-based; conditions: 0 to 16 hours
[6] = tested on: Gli-1 overexpressing cells; assay: Cell number assay, Gli-1 overexpressing FaDu cells; format: cell-based; conditions: 20 μM ribavirin
Protocol: as §1

eIF4E gene product = biological target: T2, eIF4E gene product (Homo sapiens, UniProt P06730); assay: Molecular analysis of eIF4E gene product activity in trial patients; format: in vivo; conditions: after 28 days of oral ribavirin, monotherapy trial
T2 construct: from tissue; host or cells: leukemia specimens of AML patients in the clinical trials
T2 sequence (P06730 whole entry): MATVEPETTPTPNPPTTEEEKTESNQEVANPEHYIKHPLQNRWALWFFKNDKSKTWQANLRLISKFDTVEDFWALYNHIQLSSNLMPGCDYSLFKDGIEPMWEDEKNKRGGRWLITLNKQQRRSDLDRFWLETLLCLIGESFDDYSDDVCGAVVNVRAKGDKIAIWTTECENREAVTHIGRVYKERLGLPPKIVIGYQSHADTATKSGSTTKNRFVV
Source text: In terms of clinical response, 1 CR (complete remission), 2 PR (partial remission), 3 BR (blast response), 6 SD (stable disease), 3PD (progressive disease) were observed out of 15 evaluable patients. […] A biphasic molecular response was observed, where initially the eIF4E gene product was dramatically re-distributed to the cytoplasm in patients that responded. This was followed by a drop in eIF4E RNA and protein levels (up to one 28 day cycle).

cyclin D1 and VEGF = assay: Protein levels of eIF4E export and translation targets as a function of ribavirin treatment; format: cell-based

In the case of `CS(=O)(=O)c1ccc(C(=O)Nc2ccc(Cl)c(-c3ccccn3)c2)c(Cl)c1` [GDC-0449], the reduction in growth (Parental FaDu cells; 3 nM GDC-0449 alone) is given as 25%, the plasma levels [1] is given as 3 nM and the growth (F100R cells) is given as “no effect”. The “ribavirin binding to eIF4E after GDC-0449 treatment” value (eIF4E; F10R cells) was “increase in ribavirin binding to eIF4E” and the growth (F10R cells; 3 nM GDC-0449 alone, F10R cells) was “did not affect”.
For `NC(=O)c1ncn([C@@H]2O[C@H](CO)[C@@H](O)[C@H]2O)n1` [ribavirin, 1-[(2R,3R,4S,5R)-3,4-dihydroxy-5-(hydroxymethyl)oxolan-2-yl]-1H-1,2,4-triazole-3-carboxamide], the “decrease in cell number” value (Parental FaDu cells; 10 μM ribavirin for 96 hours) was “about 50%”, the “reduction of cell number” value (Parental FaDu cells; 20 μM ribavirin) was 50% and the “number of patients with BR (blast response)” value ([2]; out of 15 evaluable patients) was 3. The “number of patients with CR (complete remission)” value ([2]; out of 15 evaluable patients) was 1, the “number of patients with PD (progressive disease)” value ([2]; out of 15 evaluable patients) was 3 and the “number of patients with PR (partial remission)” value ([2]; out of 15 evaluable patients) was 2. For the same compound, the “number of patients with SD (stable disease)” value ([2]; out of 15 evaluable patients) was 6, the drop in blasts ([2]; patient 18 (SD), during response) was 20% and the “time of maximal uptake after ribavirin treatment” value [3] was 8 to 10 h. For the same compound, the “ENT1, ADK or Gli-1 levels on addition of ribavirin” value [4] was “did not alter”, the “reduction in ENT1 levels at relapse” value (ENT1) was 3 fold and the “change of plasma ribavirin levels” value (CR patient of combination trial after Ara-C lowered to 10 mg/day) was “near doubling”. The ribavirin plasma levels (combination trial with subcutaneous low dose Ara-C) was 4 to 10 µM, the ribavirin plasma levels (monotherapy trial, 2000 mg/day) was 20 to 30 µM and the ribavirin plasma levels (monotherapy trial, 2800 mg/day) was 20 µM. The “Gli-1 levels after 28 days of ribavirin” value (Gli-1 mRNA) was “not lowered”, the “increase in MDR1 at relapse” value (MDR1) was 17 fold and the “immunoprecipitation of 14C ribavirin with eIF4E” value (eIF4E; F10R cell line) was “does not immunoprecipitate with eIF4E; also recorded: did not immunoprecipitate”. The “immunoprecipitation of 14C ribavirin with eIF4E” value (eIF4E; F100R cell line) was “does not immunoprecipitate with eIF4E”, the “cell numbers as % of the same cells without ribavirin” value (F10R cells; 20 μM ribavirin, RNAi knockdown of Gli-1 in F10R cells) was “about 50%” and the growth (F10R cells; 20 μM ribavirin, siRNA luciferase treated F10R cells) was “unaffected”. The 3H-ribavirin uptake ([5]; F10R cells) was “indistinguishable from parental FaDu cells”, the 3H-ribavirin uptake ([5]; F100R, T10R and T20R cell lines) was “severe defects in ribavirin uptake” and the “cell number as % of the untreated Gli-1 overexpressing cells” value [6] was 95%. For the same compound, the “mRNA export activity of the eIF4E gene product” value (eIF4E gene product) was “substantially reduced”, the “protein levels of cyclin D1 and VEGF” value (cyclin D1 and VEGF; parental cell lines) was “reduces levels of these proteins” and the “protein levels of cyclin D1 and VEGF” value (cyclin D1 and VEGF; resistant cell lines) was “no longer affects these”.
